Results reported in US6737383B1, “Herbicidal oxadiazolidines” (priority 1999, dated 2004).

Experiments:
blackgrass = test: Test B pre/postemergence blackgrass; assay type: in vivo, Alopecurus myosuroides
Method in brief: (§1)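 Response is a visual 0-to-10 score relative to untreated plants, where 0 means no effect and 10 means complete control, taken twelve to sixteen days after application. Treatments went onto soil at planting and onto foliage of 1- to 4-leaf plants, using a surfactant-containing non-phytotoxic solvent.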

corn = test: Test B pre/postemergence corn; assay type: in vivo, Zea mays
Method in brief: as §1

smallflower flatsedge = test: Test B flood test smallflower flatsedge; assay type: in vivo, Cyperus difformis
Method in brief: (§2)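 Flood test on plants grown to the 2-leaf stage; treated plants kept in greenhouse twelve to sixteen days, then visually rated against controls on a 0 (no effect) to 10 (complete control) scale.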

rice = test: Test B flood test rice; assay type: in vivo, Oryza sativa
Method in brief: as §2

crabgrass = test: Test B pre/postemergence crabgrass; assay type: in vivo, Digitaria sanguinalis
Method in brief: as §1

duck salad = test: Test B flood test duck salad; assay type: in vivo, Heteranthera limosa
Method in brief: as §2

bamyardgrass = test: Test B flood test barnyardgrass; assay type: in vivo, Echinochloa crus-galli
Method in brief: as §2

cocklebur = test: Test B pre/postemergence cocklebur; assay type: in vivo, Xanthium strumarium
Method in brief: as §1

pigweed = test: Test B pre/postemergence pigweed; assay type: in vivo, Amaranthus retroflexus
Method in brief: as §1

soybean = test: Test B pre/postemergence soybean; assay type: in vivo, Glycine max
Method in brief: as §1

sugar beet = test: Test B pre/postemergence sugar beet; assay type: in vivo, Beta vulgaris
Method in brief: as §1

purple nutsedge = test: Test B pre/postemergence purple nutsedge; assay type: in vivo, Cyperus rotundus
Method in brief: as §1

surinam grass = test: Test B pre/postemergence surinam grass; assay type: in vivo, Brachiaria decumbens
Method in brief: as §1

wheat = test: Test B pre/postemergence wheat; assay type: in vivo, Triticum aestivum
Method in brief: as §1

rape = test: Test B pre/postemergence rape; assay type: in vivo, Brassica napus
Method in brief: as §1

giant foxtail = test: Test B pre/postemergence giant foxtail; assay type: in vivo, Setaria faberii
Method in brief: as §1

[1] = Preemergence, Rate 62 g/ha, scale of 0 to 10 where 0 is no effect and 10 is complete control
[2] = Preemergence, Rate 250 g/ha, scale of 0 to 10 where 0 is no effect and 10 is complete control
[3] = Preemergence, Rate 500 g/ha, scale of 0 to 10 where 0 is no effect and 10 is complete control
[4] = Rate 62 g/ha, Postemergence, scale of 0 to 10 where 0 is no effect and 10 is complete control
[5] = Rate 125 g/ha, Postemergence, scale 0 to 10
[6] = Rate 125 g/ha, Preemergence, scale of 0 to 10 where 0 is no effect and 10 is complete control
[7] = Rate 500 g/ha, Postemergence, scale 0 to 10, 0 no effect, 10 complete control
[8] = Rate 62 g/ha, headed Pre-emergence (flood test species), scale 0 to 10 (0 no effect, 10 complete control)
[9] = Rate 125 g/ha, Pre-emergence, flood test species, scale 0 to 10 where 0 is no effect and 10 is complete control
[10] = Rate 250 g/ha, Pre-emergence, flood-test species, scale 0 to 10, 0 is no effect, 10 is complete control
[11] = Rate 500 g/ha, Pre-emergence, flood test species, scale 0 to 10 (0 no effect, 10 complete control)

In the case of CC(C)N(C(=O)n1oc(=O)n([C@H](C)c2ccccc2)c1=O)c1ccc(F)cc1F [Compound 238], the “Blackgrass plant response rating” value (blackgrass; [1]) is reported as 0, the “Blackgrass plant response rating” value (blackgrass; [2]) is reported as 0 and the “Plant response rating, Blackgrass” value (blackgrass; [3]) is reported as 0. The “Blackgrass plant response rating” value (blackgrass; [4]) was 0, the “Blackgrass plant response rating” value (blackgrass; [5]) was 0 and the “Blackgrass plant response rating” value (blackgrass; [6]) was 0. The “Plant response rating (0 to 10; 0 is no effect, 10 is complete control), Blackgrass” value (blackgrass; Rate 250 g/ha, Postemergence) was 0, the “Blackgrass plant response rating” value (blackgrass; [7]) was 5 and the “Corn plant response rating” value (corn; [1]) was 0. The “Corn plant response rating” value (corn; [2]) was 0, the “Plant response rating, Corn” value (corn; [3]) was 0 and the “Corn plant response rating” value (corn; [4]) was 0. The “Corn plant response rating” value (corn; [5]) was 0, the “Corn plant response rating” value (corn; [6]) was 0 and the “Plant response rating (0 to 10; 0 is no effect, 10 is complete control), Corn” value (corn; Rate 250 g/ha, Postemergence) was 0. The “Corn plant response rating” value (corn; [7]) was 0, the “S. Flatsedge plant response rating” value (smallflower flatsedge; [8]) was 0 and the “S. Flatsedge plant response rating” value (smallflower flatsedge; [9]) was 0. For the same compound, the “S. Flatsedge plant response rating” value (smallflower flatsedge; [10]) was 0, the “S. Flatsedge plant response rating” value (smallflower flatsedge; [11]) was 0 and the “Rice plant response rating” value (rice; [8]) was 0. The “Rice plant response rating” value (rice; [9]) was 0, the “Rice plant response rating” value (rice; [10]) was 0 and the “Rice plant response rating” value (rice; [11]) was 0. The “Crabgrass plant response rating” value (crabgrass; [1]) was 2, the “Crabgrass plant response rating” value (crabgrass; [2]) was 10 and the “Plant response rating, Crabgrass” value (crabgrass; [3]) was 10. The “Crabgrass plant response rating” value (crabgrass; [4]) was 0, the “Crabgrass plant response rating” value (crabgrass; [6]) was 6 and the “Plant response rating (0 to 10; 0 is no effect, 10 is complete control), Crabgrass” value (crabgrass; Rate 250 g/ha, Postemergence) was 2. The “Crabgrass plant response rating” value (crabgrass; [7]) was 5, the “Ducksalad plant response rating” value (duck salad; [8]) was 0 and the “Ducksalad plant response rating” value (duck salad; [9]) was 0. For the same compound, the “Ducksalad plant response rating” value (duck salad; [10]) was 0, the “Ducksalad plant response rating” value (duck salad; [11]) was 0 and the “Barnyardgrass plant response rating” value (bamyardgrass; [8]) was 0. For the same compound, the “Barnyardgrass plant response rating” value (bamyardgrass; [9]) was 0, the “Barnyardgrass plant response rating” value (bamyardgrass; [10]) was 0 and the “Barnyardgrass plant response rating” value (bamyardgrass; [11]) was 0. The “Cocklebur plant response rating” value (cocklebur; [1]) was 0, the “Cocklebur plant response rating” value (cocklebur; [2]) was 0 and the “Cocklebur plant response rating” value (cocklebur; [4]) was 0. The “Cocklebur plant response rating” value (cocklebur; [5]) was 0, the “Cocklebur plant response rating” value (cocklebur; [6]) was 0 and the “Plant response rating (0 to 10; 0 is no effect, 10 is complete control), Cocklebur” value (cocklebur; Rate 250 g/ha, Postemergence) was 0. The “Cocklebur plant response rating” value (cocklebur; [7]) was 0, the “Redroot pigweed plant response rating” value (pigweed; [1]) was 0 and the “Redroot pigweed plant response rating” value (pigweed; [2]) was 0. The “Plant response rating, Redroot pigweed” value (pigweed; [3]) was 9, the “Redroot pigweed plant response rating” value (pigweed; [4]) was 0 and the “Redroot pigweed plant response rating” value (pigweed; [6]) was 0. For the same compound, the “Plant response rating (0 to 10; 0 is no effect, 10 is complete control), Redroot pigweed” value (pigweed; Rate 250 g/ha, Postemergence) was 0, the “Redroot pigweed plant response rating” value (pigweed; [7]) was 5 and the “Soybean plant response rating” value (soybean; [1]) was 0. The “Soybean plant response rating” value (soybean; [2]) was 0, the “Plant response rating, Soybean” value (soybean; [3]) was 0 and the “Soybean plant response rating” value (soybean; [4]) was 1. The “Soybean plant response rating” value (soybean; [6]) was 0, the “Soybean plant response rating” value (soybean; [7]) was 2 and the “Sugarbeets plant response rating” value (sugar beet; [1]) was 0. For the same compound, the “Sugarbeets plant response rating” value (sugar beet; [2]) was 3, the “Plant response rating, Sugarbeets” value (sugar beet; [3]) was 6 and the “Sugarbeets plant response rating” value (sugar beet; [4]) was 0. For the same compound, the “Sugarbeets plant response rating” value (sugar beet; [6]) was 0, the “Sugarbeets plant response rating” value (sugar beet; [7]) was 0 and the “Nutsedge plant response rating” value (purple nutsedge; [1]) was 0. For the same compound, the “Nutsedge plant response rating” value (purple nutsedge; [2]) was 0, the “Nutsedge plant response rating” value (purple nutsedge; [4]) was 0 and the “Nutsedge plant response rating” value (purple nutsedge; [6]) was 0. The “Plant response rating (0 to 10; 0 is no effect, 10 is complete control), Nutsedge” value (purple nutsedge; Rate 250 g/ha, Postemergence) was 0, the “Nutsedge plant response rating” value (purple nutsedge; [7]) was 0 and the “B. signalgrass plant response rating” value (surinam grass; [1]) was 0. The “B. signalgrass plant response rating” value (surinam grass; Preemergence, Rate 250 g/ha, scale 0 to 10, 0 is no effect, 10 is complete control) was 0, the “Plant response rating, B. signalgrass” value (surinam grass; [3]) was 0 and the “B. signalgrass plant response rating” value (surinam grass; [4]) was 0. The “B. signalgrass plant response rating” value (surinam grass; Rate 125 g/ha, Postemergence, scale 0 (no effect) to 10 (complete control)) was 0, the “B. signalgrass plant response rating” value (surinam grass; [6]) was 0 and the “Plant response rating (0 to 10; 0 is no effect, 10 is complete control), B. signalgrass” value (surinam grass; Rate 250 g/ha, Postemergence) was 0. For the same compound, the “B. signalgrass plant response rating” value (surinam grass; [7]) was 0, the “Wheat plant response rating” value (wheat; [1]) was 0 and the “Wheat plant response rating” value (wheat; [2]) was 0. For the same compound, the “Plant response rating, Wheat” value (wheat; [3]) was 2, the “Wheat plant response rating” value (wheat; [4]) was 0 and the “Wheat plant response rating” value (wheat; [6]) was 0. The “Wheat plant response rating” value (wheat; [7]) was 0, the “Rape plant response rating” value (rape; [1]) was 0 and the “Rape plant response rating” value (rape; [2]) was 0. For the same compound, the “Plant response rating, Rape” value (rape; [3]) was 10, the “Rape plant response rating” value (rape; [4]) was 0 and the “Rape plant response rating” value (rape; [6]) was 0. For the same compound, the “Plant response rating (0 to 10; 0 is no effect, 10 is complete control), Rape” value (rape; Rate 250 g/ha, Postemergence) was 4, the “Rape plant response rating” value (rape; [7]) was 6 and the “Giant foxtail plant response rating” value (giant foxtail; [1]) was 5. For the same compound, the “Giant foxtail plant response rating” value (giant foxtail; [2]) was 10, the “Plant response rating, Giant foxtail” value (giant foxtail; [3]) was 10 and the “Giant foxtail plant response rating” value (giant foxtail; [4]) was 0. The “Giant foxtail plant response rating” value (giant foxtail; [6]) was 6, the “Plant response rating (0 to 10; 0 is no effect, 10 is complete control), Giant foxtail” value (giant foxtail; Rate 250 g/ha, Postemergence) was 0 and the “Giant foxtail plant response rating” value (giant foxtail; [7]) was 2.
